From patent US8802700B2 (Vertex Pharmaceuticals Incorporated, priority 2010, dated 2014)

Target: T1, ΔF508-CFTR (Homo sapiens, UniProt P13569, DEL508-508)
T1 construct: expressed in transfected cells
Assay: Membrane potential optical assay (FRET voltage-sensor dyes, VIPR), identification of potentiator compounds
Format: cell-based
Settings: Table 3; assay not given
Summary of the method: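 NIH3T3 mouse fibroblasts stably expressing ΔF508-CFTR, cultured 24 h at 27 °C, were loaded with FRET voltage dyes CC2-DMPE and DiSBAC2(3). Double-addition format: first addition of Cl⁻-free (gluconate) medium with or without compound; membrane-potential change read as fluorescence on VIPR II.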

T1 sequence (P13569 with tags, fused parts or gaps DEL508-508): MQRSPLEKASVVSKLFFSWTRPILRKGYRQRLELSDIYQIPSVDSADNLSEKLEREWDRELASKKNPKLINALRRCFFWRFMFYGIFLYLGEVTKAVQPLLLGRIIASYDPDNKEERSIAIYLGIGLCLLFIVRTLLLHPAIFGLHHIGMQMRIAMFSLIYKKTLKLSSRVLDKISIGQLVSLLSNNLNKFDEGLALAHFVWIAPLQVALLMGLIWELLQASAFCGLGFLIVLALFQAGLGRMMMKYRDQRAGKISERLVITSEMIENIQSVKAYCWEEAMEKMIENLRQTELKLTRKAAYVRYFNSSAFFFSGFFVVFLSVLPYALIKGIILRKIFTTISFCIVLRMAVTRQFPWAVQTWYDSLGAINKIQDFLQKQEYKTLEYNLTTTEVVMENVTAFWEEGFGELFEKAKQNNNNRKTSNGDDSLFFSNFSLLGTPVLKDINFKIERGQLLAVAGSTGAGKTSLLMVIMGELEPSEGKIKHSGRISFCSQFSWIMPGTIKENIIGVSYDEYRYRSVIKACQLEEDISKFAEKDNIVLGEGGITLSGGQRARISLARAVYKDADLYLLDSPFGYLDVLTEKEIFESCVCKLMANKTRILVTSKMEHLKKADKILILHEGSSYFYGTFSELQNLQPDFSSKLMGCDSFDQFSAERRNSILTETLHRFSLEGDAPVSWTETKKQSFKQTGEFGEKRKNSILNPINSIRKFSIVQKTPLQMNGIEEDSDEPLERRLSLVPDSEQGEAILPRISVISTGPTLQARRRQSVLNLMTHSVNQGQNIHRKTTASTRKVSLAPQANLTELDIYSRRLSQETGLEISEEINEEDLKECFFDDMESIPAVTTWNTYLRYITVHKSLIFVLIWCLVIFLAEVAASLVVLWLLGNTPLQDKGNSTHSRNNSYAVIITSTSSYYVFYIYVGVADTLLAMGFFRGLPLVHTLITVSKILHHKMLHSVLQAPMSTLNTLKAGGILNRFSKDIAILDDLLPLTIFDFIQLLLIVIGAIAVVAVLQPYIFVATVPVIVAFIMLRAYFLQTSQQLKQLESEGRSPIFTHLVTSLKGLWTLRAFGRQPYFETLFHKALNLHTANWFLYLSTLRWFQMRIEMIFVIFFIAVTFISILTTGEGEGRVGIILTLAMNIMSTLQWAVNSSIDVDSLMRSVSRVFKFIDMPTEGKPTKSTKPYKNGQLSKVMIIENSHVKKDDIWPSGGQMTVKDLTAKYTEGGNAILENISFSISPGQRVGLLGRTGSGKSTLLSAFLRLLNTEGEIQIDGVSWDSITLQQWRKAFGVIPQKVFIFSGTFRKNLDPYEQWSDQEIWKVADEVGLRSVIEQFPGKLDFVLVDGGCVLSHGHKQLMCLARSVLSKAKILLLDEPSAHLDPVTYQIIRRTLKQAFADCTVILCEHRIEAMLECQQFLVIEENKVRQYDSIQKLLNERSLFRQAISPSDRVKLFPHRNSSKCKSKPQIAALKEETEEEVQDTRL

EC50 [µM] | SMILES
< 10 | CCCc1ccc(NC(=O)c2c[nH]c3ccccc3c2=O)cc1N(C)C [Compound 462, N-(3-dimethylamino-4-propyl-phenyl)-4-oxo-1H-quinoline-3-carboxamide]
10 to 25 | CCCc1ccc(NC(C)=O)cc1NC(=O)c1c[nH]c2ccccc2c1=O [Compound 232, N-(5-acetylamino-2-propyl-phenyl)-4-oxo-1H-quinoline-3-carboxamide]
< 10 | CS(=O)(=O)Nc1cc(NC(=O)c2c[nH]c3ccccc3c2=O)cc(C(F)(F)F)c1 [Compound 441, N-[3-methylsulfonylamino-5-(trifluoromethyl)phenyl]-4-oxo-1H-quinoline-3-carboxamide]
< 10 | CCc1ccc(N)cc1NC(=O)c1c[nH]c2ccccc2c1=O [Compound 282, N-(5-amino-2-ethyl-phenyl)-4-oxo-1H-quinoline-3-carboxamide]

Same assay, conditions: Table 3; assay not given; read-out: % Activity (% Efficacy, relative efficacy)

Emax [%] | SMILES
< 25 | NS(=O)(=O)c1ccc(NC(=O)c2c[nH]c3ccccc3c2=O)cc1 [Compound 165, 4-oxo-N-(4-sulfamoylphenyl)-1H-quinoline-3-carboxamide]
25 to 100 | COCCn1ccc2cc(C(F)(F)F)c(NC(=O)c3c[nH]c4ccc(F)cc4c3=O)cc21 [Compound 566, 6-fluoro-N-[1-(2-methoxyethyl)-5-(trifluoromethyl)indol-6-yl]-4-oxo-1H-quinoline-3-carboxamide]
25 to 100 | CCCOC(=O)NCC(C)(C)c1ccc(NC(=O)c2c[nH]c3ccccc3c2=O)cc1 [Compound 416, [2-methyl-2-[4-[(4-oxo-1H-quinolin-3-yl)carbonylamino]phenyl]-propyl]aminoformic acid propyl ester]
25 to 100 | CCCc1ccc(NC(=O)c2c[nH]c3ccccc3c2=O)cc1N(C)C [Compound 462, N-(3-dimethylamino-4-propyl-phenyl)-4-oxo-1H-quinoline-3-carboxamide]
25 to 100 | CCCc1ccc(NC(C)=O)cc1NC(=O)c1c[nH]c2ccccc2c1=O [Compound 232, N-(5-acetylamino-2-propyl-phenyl)-4-oxo-1H-quinoline-3-carboxamide]
25 to 100 | O=C(Nc1ccccc1-c1cccc(OC(F)(F)F)c1)c1c[nH]c2ccccc2c1=O [Compound 253, 4-oxo-N-[2-[3-(trifluoromethoxy)phenyl]phenyl]-1H-quinoline-3-carboxamide]
25 to 100 | Cc1ccc2[nH]cc(C(=O)Nc3ccc(N4CCC(C)(C)C4)cc3C(F)(F)F)c(=O)c2c1 [Compound 489, N-[4-(3,3-dimethylpyrrolidin-1-yl)-2-(trifluoromethyl)phenyl]-6-methyl-4-oxo-1H-quinoline-3-carboxamide]
< 25 | Cc1cccnc1NC(=O)c1c[nH]c2ccccc2c1=O [Compound 192, N-(3-methyl-2-pyridyl)-4-oxo-1H-quinoline-3-carboxamide]
25 to 100 | CCCCCc1ccc(NC(=O)c2c[nH]c3ccccc3c2=O)cc1 [Compound 99, 4-oxo-N-(4-pentylphenyl)-1H-quinoline-3-carboxamide]
25 to 100 | CC1(C)CCN(c2ccc(NC(=O)c3c[nH]c4ccccc4c3=O)c(C(F)(F)F)c2)C1 [Compound 536, N-[4-(3,3-dimethylpyrrolidin-1-yl)-2-(trifluoromethyl)phenyl]-4-oxo-1H-quinoline-3-carboxamide]
25 to 100 | COc1ccc2c(=O)c(C(=O)Nc3ccc(N4CCC[C@@H]4C)cc3C(F)(F)F)c[nH]c2c1 [Compound 642, (S)-7-methoxy-N-(4-(2-methylpyrrolidin-1-yl)-2-(trifluoromethyl)phenyl)-4-oxo-1,4-dihydroquinoline-3-carboxamide]
25 to 100 | C[C@H]1CCCN1c1ccc(NC(=O)c2c[nH]c3ccc(F)cc3c2=O)c(C(F)(F)F)c1 [Compound 714, (S)-6-fluoro-N-(4-(2-methylpyrrolidin-1-yl)-2-(trifluoromethyl)phenyl)-4-oxo-1,4-dihydroquinoline-3-carboxamide]
< 25 | O=C(Nc1ccc(N2CCOCC2)cc1)c1c[nH]c2ccccc2c1=O [Compound 457, N-(4-morpholinophenyl)-4-oxo-1H-quinoline-3-carboxamide]
25 to 100 | O=C(Nc1ccccc1-c1ccc(OC(F)(F)F)cc1)c1c[nH]c2ccccc2c1=O [Compound 388, 4-oxo-N-[2-[4-(trifluoromethoxy)phenyl]phenyl]-1H-quinoline-3-carboxamide]
25 to 100 | Cc1cccc2[nH]cc(C(=O)Nc3ccc(N4C[C@@H]5CC[C@H]4C5)cc3C(F)(F)F)c(=O)c12 [Compound 582, N-(4-((1S,4R)-2-azabicyclo[2.2.1]heptan-2-yl)-2-(trifluoromethyl)phenyl)-5-methyl-4-oxo-1,4-dihydroquinoline-3-carboxamide]
25 to 100 | CCCc1ccc(NC)cc1NC(=O)c1c[nH]c2ccccc2c1=O [Compound 356, N-(5-methylamino-2-propyl-phenyl)-4-oxo-1H-quinoline-3-carboxamide]
25 to 100 | COc1cc(NC(=O)c2c[nH]c3ccccc3c2=O)c(C(F)(F)F)cc1C(C)(C)C [Compound 421, N-[5-methoxy-4-tert-butyl-2-(trifluoromethyl)phenyl]-4-oxo-1H-quinoline-3-carboxamide]
25 to 100 | O=C(Nc1ccc2c(c1)NCC21CC1)c1c[nH]c2ccccc2c1=O [Compound 22, 4-Oxo-1,4-dihydro-quinoline-3-carboxylic acid N-(1′,2′-dihydrospiro[cyclopropane-1,3′-[3H]indol]-6′-yl)-amide]
25 to 100 | CCc1cccc(CC)c1NC(=O)c1c[nH]c2ccccc2c1=O [Compound 325, N-(2,6-diethylphenyl)-4-oxo-1H-quinoline-3-carboxamide]
25 to 100 | O=C(Nc1c(Cl)cccc1Cl)c1c[nH]c2ccccc2c1=O [Compound 317, N-(2,6-dichlorophenyl)-4-oxo-1H-quinoline-3-carboxamide]
25 to 100 | N#Cc1c[nH]c2cc(NC(=O)c3c[nH]c4ccccc4c3=O)ccc12 [Compound 339, N-(3-cyano-1H-indol-6-yl)-4-oxo-1H-quinoline-3-carboxamide]

Emax [%] | SMILES
25 to 100 | CCCc1ccc(NC(=O)c2c[nH]c3ccccc3c2=O)cc1NS(C)(=O)=O [Compound 340, N-(3-methylsulfonylamino-4-propyl-phenyl)-4-oxo-1H-quinoline-3-carboxamide]
25 to 100 | Cc1ccc(NC(=O)c2c[nH]c3ccccc3c2=O)cc1C [Compound 246, N-(3,4-dimethylphenyl)-4-oxo-1H-quinoline-3-carboxamide]
25 to 100 | CN(C(=O)c1c[nH]c2ccccc2c1=O)c1cc(O)c(C(C)(C)C)cc1C(C)(C)C [Compound 337, N-(5-hydroxy-2,4-ditert-butyl-phenyl)-N-methyl-4-oxo-1H-quinoline-3-carboxamide]
25 to 100 | CCc1cc2cc[nH]c2cc1NC(=O)c1c[nH]c2ccccc2c1=O [Compound 351, N-(5-ethyl-1H-indol-6-yl)-4-oxo-1H-quinoline-3-carboxamide]
< 25 | CC(C)(C)c1ccc(NC(=O)c2c[nH]c3ccccc3c2=O)cc1CN [Compound 390, N-[3-(Aminomethyl)-4-tert-butyl-phenyl]-4-oxo-1H-quinoline-3-carboxamide]
< 25 | O=C(Nc1ccc2c(c1)S(=O)(=O)C=C2)c1c[nH]c2ccccc2c1=O [Compound 446, N-(1,1-dioxobenzothiophen-6-yl)-4-oxo-1H-quinoline-3-carboxamide]
25 to 100 | COC(=O)Nc1cc(NC(=O)c2c[nH]c3ccccc3c2=O)ccc1C(C)C [Compound 30, [2-isopropyl-5-[(4-oxo-1H-quinolin-3-yl)carbonylamino]phenyl]aminoformic acid methyl ester]
25 to 100 | O=C(Nc1cc2[nH]ccc2cc1C(F)(F)F)c1c[nH]c2ccccc2c1=O [Compound 234, 4-oxo-N-[5-(trifluoromethyl)-1H-indol-6-yl]-1H-quinoline-3-carboxamide]
25 to 100 | CC(C)(C)c1c[nH]c2cc(NC(=O)c3c[nH]c4cccc(O)c4c3=O)ccc12 [Compound 535, 5-hydroxy-4-oxo-N-(3-tert-butyl-1H-indol-6-yl)-1H-quinoline-3-carboxamide]
25 to 100 | COC(=O)Oc1c(NC(=O)c2c[nH]c3ccccc3c2=O)cc(F)cc1C(C)(C)C [Compound 288, N-(5-fluoro-2-methoxycarbonyloxy-3-tert-butyl-phenyl)-4-oxo-1H-quinoline-3-carboxamide]
< 25 | CCc1cccc2c(=O)c(C(=O)Nc3cc(O)c(C(C)(C)C)cc3F)c[nH]c12 [Compound 605, 8-ethyl-N-(2-fluoro-5-hydroxy-4-tert-butyl-phenyl)-4-oxo-1H-quinoline-3-carboxamide]
25 to 100 | CS(=O)(=O)Nc1cc(NC(=O)c2c[nH]c3ccccc3c2=O)cc(C(F)(F)F)c1 [Compound 441, N-[3-methylsulfonylamino-5-(trifluoromethyl)phenyl]-4-oxo-1H-quinoline-3-carboxamide]
25 to 100 | CCOC(=O)Cc1c[nH]c2cc(NC(=O)c3c[nH]c4ccccc4c3=O)ccc12 [Compound 207, 2-[6-[(4-oxo-1H-quinolin-3-yl)carbonylamino]-1H-indol-3-yl]acetic acid ethyl ester]
25 to 100 | COc1cccc(NC(=O)c2c[nH]c3ccccc3c2=O)c1 [Compound 408, N-(3-methoxyphenyl)-4-oxo-1H-quinoline-3-carboxamide]
25 to 100 | CC(C)(C)c1cc(F)c(NC(=O)c2c[nH]c3cccc(F)c3c2=O)cc1O [Compound 610, 5-fluoro-N-(2-fluoro-5-hydroxy-4-tert-butyl-phenyl)-4-oxo-1H-quinoline-3-carboxamide]
> 100 | COc1cc2[nH]cc(C(=O)Nc3cc(O)c(C(C)(C)C)cc3C(C)(C)C)c(=O)c2cc1F [Compound 617, 6-fluoro-N-(5-hydroxy-2,4-ditert-butyl-phenyl)-7-methoxy-4-oxo-1H-quinoline-3-carboxamide]
> 100 | O=C(Nc1ccc2c(C(F)(F)F)c[nH]c2c1)c1c[nH]c2ccccc2c1=O [Compound 545, 4-oxo-N-[3-(trifluoromethyl)-1H-indol-6-yl]-1H-quinoline-3-carboxamide]
< 25 | O=C(Nc1cccc(S(=O)(=O)N2CCCCC2)c1)c1c[nH]c2ccccc2c1=O [Compound 442, 4-oxo-N-[3-(1-piperidylsulfonyl)phenyl]-1H-quinoline-3-carboxamide]
25 to 100 | CCOCCc1c[nH]c2cc(NC(=O)c3c[nH]c4ccccc4c3=O)ccc12 [Compound 423, N-[3-(2-ethoxyethyl)-1H-indol-6-yl]-4-oxo-1H-quinoline-3-carboxamide]
25 to 100 | CCc1ccc(N)cc1NC(=O)c1c[nH]c2ccccc2c1=O [Compound 282, N-(5-amino-2-ethyl-phenyl)-4-oxo-1H-quinoline-3-carboxamide]
